Results published in PMC4457826 (PLoS Pathogens, 2015).
No end group written: not given here.

Legend:
FL-USP7 = test: GST pull-down, USP7-FL; type: binding, human; conditions: GST fusions 250 μg + USP7 250 μg, 50 mM Tris pH 8.0, 100 mM NaCl, 5 mM DTT, 5% glycerol, overnight 4°C; Coomassie stained gel; Fig 1A/1C; symbols not defined
Description: The USP7 binding region is found within ICP0 residues 594–633 and mutagenesis studies have shown that K620 is essential for the interaction. In order to facilitate crystallization and structure determination, we set out to identify a shorter peptide that is capable of binding to USP7. To this end, a series of overlapping GST-ICP0 fusions (591–605, 595–609, 599–613, 603–617, 607–621, 611–625, 615–629, 619–633) were prepared (see Fig 1A for sequence details) and used in GST pull-down assays. […] Overall, our GST pull-down assays identified ICP0 residues between 619 and 629 as important mediators of USP7 binding in agreement with a previous study.
Next we determined which region of USP7-CTD interacted with the ICP0 615–629 peptide. FL-USP7, USP7-CTD as well as Ubl12, Ubl123, Ubl345 and Ubl45 (Fig 1B) were used as prey in GST pull-down assays using GST-ICP0 615–629. FL-USP7 and USP7-CTD were used as positive controls while GST alone and USP7-NTD were used as negative controls.
(§1) The ICP0, GMPS and UHRF1 WT and mutant peptides were cloned into pGEX-2TK and expressed in E. coli BL21(DE3). GST-ICP0 594–775 was obtained from Roger Everett. The GST-ICP0 or GST-GMPS or GST-UHRF1 or GST-ICP0 594–775 cell pellets from 500 ml of LB broth were re-suspended with PBS and lysed using sonication. The cleared lysates were applied to 500 μl of equilibrated glutathione-sepharose beads and incubated with rocking for 60 min at 4°C. Unbound proteins were removed by washing with PBS. Bound proteins were eluted with 50 mM Tris pH 8.0 and 100 mM NaCL containing 30 mM reduced glutathione. Equal amounts (250 μg) of the various USP7 proteins were incubated with 250 μg of the GST-ICP0 or GST-GMPS or GST-UHRF1 or GST-ICP0 594–775 peptides in 50 mM Tris pH 8.0, 100 mM NaCl, 5 mM DTT, 5% glycerol, 0.1 mM Benzamidine and 0.05 mM PMSF, applied to equilibrated glutathione-sepharose beads and incubated overnight with rocking at 4°C. After extensive washing, bound proteins were eluted with 50 mM Tris pH 8.0 and 100 mM NaCl containing 30 mM reduced glutathione.

USP7-CTD = target: T1, USP7-CTD (Homo sapiens, UniProt Q93009); test: GST pull-down, USP7-CTD; type: binding; conditions: for Interaction with USP7-CTD (overlapping GST-ICP0 peptides): GST fusions 250 μg + USP7-CTD 250 μg, 50 mM Tris pH 8.0, 100 mM NaCl, 5 mM DTT, 5% glycerol, overnight 4°C, Coomassie stained gel, Fig 1A/1D, symbols not defined
T1 construct: USP7-CTD (535–1102); His tag (inferred from nickel-NTA purification; vector p15TV-L); made in house; host or cells: E. coli BL21(DE3)mgk
T1 sequence (Q93009 535-1102): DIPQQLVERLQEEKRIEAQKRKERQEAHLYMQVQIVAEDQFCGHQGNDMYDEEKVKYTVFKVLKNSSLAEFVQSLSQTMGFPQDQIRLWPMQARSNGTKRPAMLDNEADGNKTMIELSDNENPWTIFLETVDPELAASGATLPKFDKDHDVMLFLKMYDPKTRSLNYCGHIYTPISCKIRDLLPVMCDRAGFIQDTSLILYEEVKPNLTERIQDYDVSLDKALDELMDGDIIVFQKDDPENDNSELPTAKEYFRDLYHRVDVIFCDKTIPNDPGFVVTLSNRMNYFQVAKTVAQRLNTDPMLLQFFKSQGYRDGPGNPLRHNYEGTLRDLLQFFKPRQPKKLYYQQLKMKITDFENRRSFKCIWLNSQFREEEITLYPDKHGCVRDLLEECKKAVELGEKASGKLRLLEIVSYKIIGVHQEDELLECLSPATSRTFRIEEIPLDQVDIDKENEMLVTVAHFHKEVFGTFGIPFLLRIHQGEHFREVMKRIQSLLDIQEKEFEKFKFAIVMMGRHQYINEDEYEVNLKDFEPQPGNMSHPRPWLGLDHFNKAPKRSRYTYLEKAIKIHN
Description: (§2) Fragments representing USP7-CTD Ubl domains were prepared using ligation independent cloning with In-Fusion (Clontech) in p15TV-L. The boundaries of the Ubl domain constructs are Ubl12 (535–776), Ubl123 (535–889), Ubl345 (776–1102), Ubl45 (886–1102) and USP7-CTD (535–1102). Plasmids expressing USP7-NTD, USP7, and myc-USP7 WT (pCANmycUSP7) were described previously. USP7 mutants E759A, D762A, D764A and D762A/D764A in Ubl123 were synthesized (Genscript) and inserted into the pET15b plasmid. USP7 mutants E759A, D762A, D764A, D762A/D764A and D762R/D764R in USP7-CTD were prepared by ACGT Corporation. The D762R/D764R mutant was then sub-cloned into wild-type pCANmycUSP7 for co-IP assays. The mammalian ICP0 expression construct pCI-110 ICP0 was obtained from Roger Everett.
as §1

USP7-CTD mutant D762A = test: GST pull-down, USP7-CTD D762A; type: binding, human
Description: as §2, §1

USP7-CTD mutant D764A = test: GST pull-down, USP7-CTD D764A; type: binding, human
Description: as §2
The ICP0, GMPS and UHRF1 WT and mutant peptides were cloned into pGEX-2TK and expressed in E. coli BL21(DE3). GST-ICP0 594–775 was obtained from Roger Everett. The GST-ICP0 or GST-GMPS or GST-UHRF1 or GST-ICP0 594–775 cell pellets from 500 ml of LB broth were re-suspended with PBS and lysed using sonication. The cleared lysates were applied to 500 μl of equilibrated glutathione-sepharose beads and incubated with rocking for 60 min at 4°C. Unbound proteins were removed by washing with PBS. Bound proteins were eluted with 50 mM Tris pH 8.0 and 100 mM NaCL containing 30 mM reduced glutathione. […]

[1] = system: USP7-CTD mutant D762A/D764A; test: GST pull-down, USP7-CTD D762A/D764A; type: binding, human
Description: as §2, §1

myc-tagged WT USP7 = test: Co-immunoprecipitation with myc-tagged WT USP7 from 293T cells; type: cell-based, human; conditions: anti-myc IP, endogenous protein, Western blot, Fig 5B
Description: (§3) 293T cells were grown in Dulbecco’s modified Eagle’s medium (DMEM) (Gibco) with 10% fetal calf serum. 293T cells at 70% confluence in a 10-cm-diameter dish were transfected with 10 μg pCANmycUSP7 expressing WT USP7 or D762R/D764R (MRGR) USP7 or with pcDNA3.1 (negative control), in each case using 20 μl PolyJet (SignaGen Laboratories) transfection reagent. Cells were transferred to a 15-cm-diameter dish 24 h post-transfection and harvested 48 h post-transfection. For experiments on USP7-ICP0 interactions, 293T cells were co-transfected with 1 μg pCANmycUSP7 expressing WT or D762R/D764R (MRGR) USP7 and either 1 μg pCI-110 ICP0 or 1 μg pcDNA3.1. For controls lacking USP7, 1 μg pCI-110 ICP0 was co-transfected with 1 μg pcDNA3.1. In each case 4 μl PolyJet (SignaGen Laboratories) transfection reagent was used.
Protein samples were subjected to SDS-PAGE and transferred to nitrocellulose. […]
293T cells transfected as described above were washed in phosphate-buffered saline (PBS) and lysed on ice for 45 min in a 4x volume of RIPA buffer (50 mM Tris-HCl [pH 8], 150 mM NaCl, 0.1% sodium deoxycholate, 0.5% NP-40) with complete protease inhibitors (Sigma P8340), followed by centrifugation. […] Immunoprecipitated proteins were separated by SDS-PAGE and analyzed by Western blotting, as described above.

[2] = system: myc-tagged D762R/D764R (MRGR) USP7; test: Co-immunoprecipitation with myc-tagged D762R/D764R (MRGR) USP7 from 293T cells; type: cell-based, human; conditions: anti-myc IP; for binding relative to recovery with WT USP7: D762R/D764R mutant, endogenous protein, multiple experiments, Fig 5B; for recovery with D762R/D764R USP7 (co-IP), in words: Western blot, Fig 5
Description: as §3
Protein samples were subjected to SDS-PAGE and transferred to nitrocellulose. Membranes were blocked in 5% skim milk in Tris-buffered saline with 1% Tween (TBS-T) and then incubated with antibodies against ICP0 (H1A027 from Virusys Corporation; 1:5000 dilution), myc (sc-40 from Santa Cruz Biotechnology; 1:5000 dilution), NP95/UHRF1 (A301-470A from Bethyl Laboratories; 1:1000 dilution), GMPS (rabbit serum raised against full-length GMPS [17]; 1:5000 dilution) and actin (MA5-15739 from Pierce; 1:20,000 dilution). After washing, blots were probed with goat anti-mouse or goat anti-rabbit peroxidase (Santa Cruz Biotechnology; 1:5000 dilution) and developed using chemiluminescence reagents (Santa Cruz biotechnology).
293T cells transfected as described above were washed in phosphate-buffered saline (PBS) and lysed on ice for 45 min in a 4x volume of RIPA buffer (50 mM Tris-HCl [pH 8], 150 mM NaCl, 0.1% sodium deoxycholate, 0.5% NP-40) with complete protease inhibitors (Sigma P8340), followed by centrifugation. 1 mg of each clarified lysate was incubated with 1 μg of anti-myc antibody for 1h, followed by incubation with 30 μl of A/G PLUS agarose resin (Santa Cruz Biotechnology) for 2 h at 4°C with end-over-end rotation. The resin was harvested by centrifugation, washed in RIPA buffer, and then boiled in SDS loading buffer. Immunoprecipitated proteins were separated by SDS-PAGE and analyzed by Western blotting, as described above.

USP7 Ubl123 = target: T2, USP7 Ubl123 (Homo sapiens, UniProt Q93009); test: GST pull-down, Ubl123; type: binding; conditions: mutations within ICP0 615–629, Fig 3D
T2 construct: Ubl123 (535–889); His tag (inferred from nickel-NTA purification; vector p15TV-L); made in house; host or cells: E. coli BL21(DE3)mgk
T2 sequence (Q93009 535-889): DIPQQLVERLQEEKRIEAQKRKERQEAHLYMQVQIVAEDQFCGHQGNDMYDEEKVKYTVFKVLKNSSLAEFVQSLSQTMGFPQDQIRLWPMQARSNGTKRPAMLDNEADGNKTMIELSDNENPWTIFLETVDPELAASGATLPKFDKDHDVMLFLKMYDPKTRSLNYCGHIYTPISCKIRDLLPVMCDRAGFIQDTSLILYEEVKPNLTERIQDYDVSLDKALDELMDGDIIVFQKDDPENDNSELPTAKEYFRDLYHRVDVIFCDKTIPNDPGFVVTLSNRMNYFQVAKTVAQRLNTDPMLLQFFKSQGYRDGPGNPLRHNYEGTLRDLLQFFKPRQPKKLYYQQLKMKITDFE
Description: as §2, §1

AASGPRGPRKCARKT [ICP0 611–625, GST-ICP0 fusion of ICP0 residues 611–625]
Interaction with USP7-FL (overlapping GST-ICP0 peptides) (FL-USP7): interacted with FL-USP7 and USP7-CTD but not to the same extent
Interaction with USP7-CTD (overlapping GST-ICP0 peptides) (USP7-CTD): interacted with FL-USP7 and USP7-CTD but not to the same extent

DRTPRKRISKTLN [GST-GMPS peptide, GST fusion of GMPS residues 316–328]
Binding to WT USP7-CTD (USP7-CTD; GST pull-down, GST-ICP0 594–775, GST-GMPS and GST-UHRF1 peptides and mutants, Fig 3H, 4C-F): interacted with USP7-CTD
Binding to USP7-CTD mutant D762A (USP7-CTD mutant D762A): disrupted binding
Binding to USP7-CTD mutant D764A (USP7-CTD mutant D764A): disrupted binding
Binding to USP7-CTD mutant D762A/D764A [1]: disrupted binding

GMPS: endogenous GMP synthase in 293T cells
recovery with WT USP7 (co-IP) (myc-tagged WT USP7): efficiently recovered
binding relative to recovery with WT USP7 [2]: 35% (± 16%)
recovery with D762R/D764R USP7 (co-IP), in words [2]: significantly decreased

K620A (PRGPRACARKTRHAE; also: GST fusion partner not in chain)
Binding of mutant GST-ICP0 peptides to Ubl123 (USP7 Ubl123): lacked detectable binding

K620A/K624A (PRGPRACARATRHAE; also: GST fusion partner not in chain)
Binding of mutant GST-ICP0 peptides to Ubl123 (USP7 Ubl123): lacked detectable binding

K624A (PRGPRKCARATRHAE; also: GST fusion partner not in chain)
Binding of mutant GST-ICP0 peptides to Ubl123 (USP7 Ubl123): lacked detectable binding

R619A/K620A (PRGPAACARKTRHAE; also: GST fusion partner not in chain)
Binding of mutant GST-ICP0 peptides to Ubl123 (USP7 Ubl123): lacked detectable binding

R623A/K624A (PRGPRKCAAATRHAE; also: GST fusion partner not in chain)
Binding of mutant GST-ICP0 peptides to Ubl123 (USP7 Ubl123): lacked detectable binding

RKCARKTRHAETSGA [ICP0 619–633, GST-ICP0 fusion of ICP0 residues 619–633]
Interaction with USP7-FL (overlapping GST-ICP0 peptides) (FL-USP7): strongest interaction
Interaction with USP7-CTD (overlapping GST-ICP0 peptides) (USP7-CTD): strongest interaction

RRKK
Binding of mutant GST-ICP0 peptides to Ubl123 (USP7 Ubl123): lacked detectable binding

UHRF1: endogenous epigenetic regulator UHRF1 in 293T cells, an E3 ligase
recovery with WT USP7 (co-IP) (myc-tagged WT USP7): efficiently recovered
binding relative to recovery with WT USP7 [2]: 21% (± 6%)
recovery with D762R/D764R USP7 (co-IP), in words [2]: significantly decreased
